In ChEMBL document CHEMBL1148945, “Isolation of cytochrome P450 inhibitors from strawberry fruit, Fragaria ananassa” (J Nat Prod, 2004):

Molecular target: Cytochrome P450 3A4 (Homo sapiens, UniProt P08684)
Experiment: Inhibition of human CYP3A4
Format: ADME

Cytochrome P450 3A4, sequence (P08684 whole entry): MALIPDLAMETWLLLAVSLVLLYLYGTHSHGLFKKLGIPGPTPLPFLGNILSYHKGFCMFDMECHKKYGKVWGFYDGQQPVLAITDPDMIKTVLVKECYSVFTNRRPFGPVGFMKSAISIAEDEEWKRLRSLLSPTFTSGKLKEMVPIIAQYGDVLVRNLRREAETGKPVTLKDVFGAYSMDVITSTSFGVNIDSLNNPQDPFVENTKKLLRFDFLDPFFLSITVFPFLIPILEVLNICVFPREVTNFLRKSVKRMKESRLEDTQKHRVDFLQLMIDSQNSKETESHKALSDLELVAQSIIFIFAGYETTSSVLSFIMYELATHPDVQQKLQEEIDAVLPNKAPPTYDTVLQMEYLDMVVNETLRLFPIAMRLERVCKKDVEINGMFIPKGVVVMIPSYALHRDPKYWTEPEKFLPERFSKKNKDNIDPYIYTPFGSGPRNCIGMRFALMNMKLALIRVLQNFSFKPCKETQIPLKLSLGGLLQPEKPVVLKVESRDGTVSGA

Row | IC50 [µM] | SMILES
1 | 120 | CC(C)CC(=O)c1c(O)cc(O)cc1O[C@@H]1O[C@H](CO)[C@@H](O)[C@H](O)[C@H]1O
2 | 0.7 | O=C(/C=C\c1ccc(O)cc1)OC[C@H]1O[C@@H](Oc2c(-c3ccc(O)cc3)oc3cc(O)cc(O)c3c2=O)[C@H](O)[C@@H](O)[C@@H]1O
3 | 0.7 | O=C(/C=C/c1ccc(O)cc1)OC[C@H]1O[C@@H](Oc2c(-c3ccc(O)cc3)oc3cc(O)cc(O)c3c2=O)[C@H](O)[C@@H](O)[C@@H]1O [TILIROSIDE]
